One assay addresses T1, human NK3 receptor (Homo sapiens, UniProt P29371).
T1 construct: expressed in transfected cells
T1 sequence (P29371 1-465): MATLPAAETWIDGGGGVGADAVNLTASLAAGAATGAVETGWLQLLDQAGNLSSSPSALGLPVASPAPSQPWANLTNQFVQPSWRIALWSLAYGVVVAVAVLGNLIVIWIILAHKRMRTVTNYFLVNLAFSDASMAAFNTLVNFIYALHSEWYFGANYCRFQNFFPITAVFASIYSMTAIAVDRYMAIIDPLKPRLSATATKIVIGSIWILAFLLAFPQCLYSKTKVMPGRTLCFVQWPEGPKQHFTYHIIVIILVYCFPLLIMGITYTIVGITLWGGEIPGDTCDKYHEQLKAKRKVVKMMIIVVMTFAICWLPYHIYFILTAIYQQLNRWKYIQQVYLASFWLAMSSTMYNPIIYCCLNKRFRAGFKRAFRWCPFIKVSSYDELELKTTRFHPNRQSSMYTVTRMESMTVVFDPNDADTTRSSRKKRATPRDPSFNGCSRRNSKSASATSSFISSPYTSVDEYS
The assay can be described thus: NK3 receptor binding assay (SPA competition binding, 125I-NKB). Particulars: read-out: Affinity (Ki/nM). The protocol:
Membrane preparation: BHK cells stably expressing the human NK3 receptor were seeded in harvesting plates in Dulbeccos MEM containing GlutaMax (862 mg/l), 1 mM sodium pyruvate, 10% fetal calf serum, 1% Pen/Strep, 1 mg/ml G418 and were grown at 34° C. in a humidified atmosphere containing 10% CO2. To increase receptor expression, 10 μM trichotatin A was added to the media 24 hours before harvest of the cells at a confluency of app 90%. Prior to the harvesting, the cells were washed twice with PBS without Mg^2+ og Ca^2+ and subsequently scrapped of in 10 ml PBS pr harvesting plate. The cells suspension were centrifuged at 1500×G in three minutes before resuspension in 15 mM Tris-HCl pH 7.5 buffer containing 2 mM MgCl2; 0.3 mM EDTA and 1 mM EGTA (buffer A). The cell suspension was homogenised and subsequently centrifuged at 40000×G in 30 minutes. The membrane-pellet was resuspended in buffer A containing 250 mM sucrose, aliquoted and stored at −80° C.
Affinity assay description: The assay was performed as a SPA-based competition-binding assay in a 50 mM Tris pH 7.4 assay buffer containing 120 mM NaCl, 3 mM MnCl2, 40 μg/ml bacitracin, 2 μg/ml Chymostatin, 1 μg/ml Phosphoramidon and 4 μg/ml Leupeptin. […] The assay plate was subsequently under agitation incubated for 90 min at RT.

For assay [1] the following is noted: cited from earlier work.

Consider `Cc1c(C(=O)N[C@H](c2cccc(F)c2)C2CCC2)c2cccc(F)c2c(=O)n1[C@H]1CCOC1` [Example 4r, 8-Fluoro-3-methyl-1-oxo-2-(S)-tetrahydro-furan-3-yl-1,2-dihydro-isoquinoline-4-carboxylic acid [(S)-cyclobutyl-(3-fluoro-phenyl)-methyl]-amide], for which, at human NK3 receptor, the Ki worked out at 170 nM.

As for `Cc1c(C(=O)N[C@H](c2cccc(F)c2)C2CC2)c2cccc(F)c2c(=O)n1[C@@H]1CCNC1` [Example 5g, 8-Fluoro-3-methyl-1-oxo-2-(R)-1-pyrrolidin-3-yl-1,2-dihydro-isoquinoline-4-carboxylic acid [(S)-cyclopropyl-(3-fluoro-phenyl)-methyl]-amide], the Ki at human NK3 receptor came to 180 nM.

Turning to `CC(=O)N(C)C1(c2ccccc2)CCN(CCC[C@]2(c3ccc(Cl)c(Cl)c3)CCCN(C(=O)c3ccccc3)C2)CC1` [Osanetant, osanetant], the “effect in clinical trials versus placebo” value in assay [1] (in particular on positive symptoms of psychosis) was “superior to placebo”. Consider `CC[C@H](NC(=O)c1c(O)c(-c2ccccc2)nc2ccccc12)c1ccccc1` [Talnetant, talnetant], for which the “effect on cognitive behaviour of schizophrenics in clinical trials” value in assay [1] (in vivo) is “ameliorate the cognitive behaviour of schizophrenics”.
